In the test the target is T1, caspase 3 (Homo sapiens, UniProt P42574).
T1 construct: His tag (C); made in house; host or cells: E. coli
T1 sequence (P42574 29-175 limits assumed): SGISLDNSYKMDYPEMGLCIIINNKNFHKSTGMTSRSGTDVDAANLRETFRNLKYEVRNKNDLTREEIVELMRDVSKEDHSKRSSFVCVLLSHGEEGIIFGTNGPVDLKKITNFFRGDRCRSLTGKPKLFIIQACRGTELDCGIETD
T1 sequence (P42574 176-277 limits assumed): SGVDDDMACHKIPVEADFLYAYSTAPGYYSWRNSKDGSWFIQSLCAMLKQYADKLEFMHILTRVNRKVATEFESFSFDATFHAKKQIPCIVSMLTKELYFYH
The experiment in a line: Determination of probe IC50: caspase inhibition assay, cleavage of fluorogenic substrate Ac-DEVD-AFC. To be noted: substrate Ac-DEVD-AFC 25 μM; caspase added last; cleavage monitored 90 minutes, ex 400 nm / em 505 nm. In kind it is biochemical. As for the experimental part: This standard pharmacological test procedure to assess the inhibition of recombinant caspase 3 activity of selected compounds was adapted from Thornbery, N., J. Biol. Chem. 1997 272(29) 17907-17911 and Stennicke, H. R. et al., J. Biol. Chem. 1997 272(41) 25719-25723. The procedure used and results obtained are briefly described below.
Caspase 3 was assayed at 23° C. (room temp) in 96-well plates using the internally quenched tetrapeptide substrate N-acetyl-aspartyl-glutamyl-valyl-aspartate-7-amino-4-trifluoromethyl coumarin (Ac-DEVD-AFC purchased from Biomol). The assays are conducted at pH 7.2 in a buffered system containing 20 mM PIPES, 100 mM NaCl, 1 mM EDTA, 0.1% CHAPS, 10% sucrose and 5 mM L-cysteine. The final concentration of the substrate is 25 μM. Enzymic cleavage between the aspartate and the AFC fluorophore liberates 7-amino-4-trifluoromethyl coumarin which is detected using an excitation wavelength of 400 nm and an emission wavelength of 505 nm in a SpectraMax GeminiXS plate reader operated at room temperature. A steady state rate of substrate cleavage is obtained for analysis. […]
The substrate Ac-DEVD-AFC (25 μM) was added to varying inhibitor (probe) concentrations ranging from 20 μM to 2 nM. […] The cleavage of the substrate by the enzyme (caspase) was monitored continuously for 90 minutes by exciting the substrate at 400 nm and monitoring the fluorescence at emission at 505 nm. […]

Compound `CN1C(=O)C(=O)c2cc(S(=O)(=O)N3CCC[C@H]3CNC(=O)CCCCCNC(=O)c3ccc(-c4c5ccc(=O)cc-5oc5cc(O)ccc45)c(C(=O)O)c3)ccc21` [Example 2, 2-(6-Hydroxy-3-oxo-3H-xanthen-9-yl)-5-[({6-[({(2S)-1-[(1-methyl-2,3-dioxo-2,3-dihydro-1H-indol-5-yl)sulfonyl]pyrrolidin-2-yl}methyl)amino]-6-oxohexyl}amino)carbonyl]benzoic acid] displayed an IC50 of 15 nM. This lies in the double-digit nanomolar range.

`CN1C(=O)C(=O)c2cc(S(=O)(=O)N3CCC[C@H]3CNC(=O)c3ccc(-c4c5ccc(=O)cc-5oc5cc(O)ccc45)c(C(=O)O)c3)ccc21` [Example 1, 2-(6-Hydroxy-3-oxo-3H-xanthen-9-yl)-5-{[({(2S)-1-[(1-methyl-2,3-dioxo-2,3-dihydro-1H-indol-5-yl)sulfonyl]pyrrolidin-2-yl}methyl)amino]carbonyl}benzoic acid] showed an IC50 of 10 nM. Against the preceding compound, the IC50 is about 1.5-fold lower.

One may read the IC50 as the concentration that gives 50% inhibition. High values mean weaker potency, low ones greater potency.

The record behind these values is US20070065898A1, “Fluorescence polarization assays for binding of caspase inhibitors and probes therefor” (Wyeth, priority 2005, published 2007).
